Results taken from patent publication US20230416261A1, “ETHANEDIAMINE-HETEROCYCLE DERIVATIVES AS INHIBITORS OF PROTEIN ARGININE METHYLTRANSFERASES” (Board of Regents, The University of Texas System, priority 2021, published 2023).

Experiments:
DOHH2 cells = experiment: DOHH2 Long Term Phenotypic Assay (7 days, Cell Titer-Glo viability); type: cell-based; settings: Homo sapiens, DOHH-2, 168 h, Cell Titer-Glo 2.0
Summary of the method: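 DOHH2 lymphoma cells (250 per well) in RPMI-1640 with 10% FBS were exposed to 1:3 serially diluted compounds for 7 days at 37 °C, 5% CO2. Viability was read by CellTiter-Glo 2.0 luminescence, and IC50 values came from four-parameter logistic fits.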

PRMT1 [1] = biological target: T1, PRMT1 (Homo sapiens, UniProt Q99873); experiment: PRMT1 Enzymatic Assay (LANCE TR-FRET, methylation of histone H4 at Arg3); type: biochemical; set-up: purchased SignalChem P365-380G; settings: PRMT1 1.5 nM, SAM 1 μM, biotinylated histone H4 (1-21) 25 nM; read-out: PRMT-1 IC50
Summary of the method: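 PRMT1 (1.5 nM) preincubated 15 min with compound at room temperature, then reacted 1 h with 1 μM SAM and 25 nM biotinylated histone H4 (1-21) in 50 mM Hepes pH 8, 1 mM TCEP, 0.003% Tween-20. H4R3me detected by TR-FRET (665/620 nm ratio); IC50 from four-parameter logistic fit.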

PATC53 cells = experiment: PATC53 Long Term Phenotypic Assay (14 days, crystal violet viability); type: cell-based; settings: 336 h
Protocol: PATC53 cells were derived from the PATC53 PDX model and kindly provided by Jason Fleming (MDACC). The cells were routinely maintained in DMEM/F12 Medium (Corning, Catalog #10-090-CV) supplemented with 10% fetal bovine serum (Sigma, Catalog #F2442), 100 units/mL penicillin and 100 μg/mL streptomycin (Gibco, Catalog #15140-122) in a humidified incubator (37° C., 5% CO2). Prior to the assay, cells were seeded onto a 12-well, TC treated plate (Corning, catalog #353043) at a density of 250 cells per well in a volume of 1 mL. The plate was incubated for 24 hours at 37° C. and 5% CO2. Stock solutions of the test compounds were prepared in 100% DMSO (Sigma, Catalog #D2650) and serially diluted 1:3 using 100% DMSO. Compounds were additionally diluted 1:100 in culture medium, and 110 μL/well was transferred to the tissue culture plate. Following the compound addition, the plate was incubated at 37° C. and 5% CO2 for 14 days. Viability was then assessed by crystal violet staining (Fisher Scientific, Catalog #C58125) as follows: 450 μL of crystal violet (1 mg/mL) was added to the plate for a 10 minute incubation at room temperature. After incubation, the plate was washed 3× with distilled water to remove excess dye and allowed to dry overnight. The crystal violet was solubilized using 10% HOAc (500 μL) for 10 minutes at room temperature, while shaking. A volume of 100 μL was then transferred to a 96-well SpectraPlate (Perkin Elmer, Catalog #6005649). Absorbance at 590 nm was measured with a BioTek Synergy Neo. IC50 values were calculated using a four-parameter logistic curve fit using Genedata Screener software.

PRMT1 [2] = biological target: T1, PRMT1; experiment: PRMT1 RKO Cellular Target Engagement Assay (In-Cell Western, asymmetric di-methyl arginine); type: cell-based; settings: RKO cells, 48 hr compound incubation; read-out: RKO IC50 (PRMT-1 Target Engagement)
Summary of the method: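 RKO cells (1,000/well) received 1:3 serially diluted compound for 48 h at 37 °C, then were fixed, permeabilised and immunostained for asymmetric di-methyl arginine by In-Cell Western. The 800 nm antibody signal was normalised to CellTag 700 nm; IC50 from four-parameter logistic fit.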

T1 sequence (Q99873 whole entry): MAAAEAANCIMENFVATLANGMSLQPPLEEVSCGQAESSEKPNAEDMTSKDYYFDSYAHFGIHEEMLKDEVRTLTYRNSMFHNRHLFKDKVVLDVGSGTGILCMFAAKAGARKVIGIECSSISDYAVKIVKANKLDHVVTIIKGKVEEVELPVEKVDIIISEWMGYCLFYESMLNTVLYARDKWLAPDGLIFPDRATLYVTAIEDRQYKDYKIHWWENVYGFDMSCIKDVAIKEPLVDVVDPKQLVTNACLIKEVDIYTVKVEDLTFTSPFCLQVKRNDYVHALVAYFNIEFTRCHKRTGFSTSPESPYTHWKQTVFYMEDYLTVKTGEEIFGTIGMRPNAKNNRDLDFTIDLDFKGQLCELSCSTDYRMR

IC50 (PRMT1 [1]) [nM]	IC50 (PRMT1 [2]) [nM]	SMILES	IC50 (DOHH2 cells) [nM]	IC50 (PATC53 cells) [nM]
68	1110	CNCCN(C)Cc1nn2c(c1C1CCC(COC)(COC)CC1)CN(C(=O)C1CC(F)(F)C1)CC2 [Example 53, (3-(4,4-bis(methoxymethyl)-cyclohexyl)-2-((methyl(2-(methylamino)ethyl)amino)-methyl)-6,7-dihydropyrazolo-[1,5-a]pyrazin-5(4H)-yl)(3,3-difluorocyclobutyl)-methanone]	87	42
57	142	CNCCN(C)Cc1nn2c(c1C1CCC(COC)(COC)CC1)CN(C(=O)C1CC(C(F)(F)F)C1)CC2 (stereo not shown) [Example 74, (3-(4,4-bis(methoxymethyl)-cyclohexyl)-2-((methyl(2-(methylamino)ethyl)amino)-methyl)-6,7-dihydropyrazolo-[1,5-a]pyrazin-5(4H)-yl)(3-(trifluoromethyl)cyclobutyl)-methanone]	93	54
13	329	COCC1(COC)CCC(c2c(CN(C)CCN)nn3c2CN(C(=O)C2(F)CCC2)CC3)CC1 [Example 49, (2-(((2-aminoethyl)(methyl)-amino)methyl)-3-(4,4-bis-(methoxymethyl)cyclohexyl)-6,7-dihydropyrazolo[1,5-a]-pyrazin-5(4H)-yl)(1-fluoro-cyclobutyl)methanone]	166	118
36	913	CNCCN(C)Cc1nn2c(c1C1CCC(COC)(COC)CC1)CN(C(=O)C(C)(C)C)CC2 [Example 8, 1-(3-(4,4-bis(methoxy-methyl)cyclohexyl)-2-((methyl(2-(methylamino)-ethyl)amino)methyl)-6,7-dihydropyrazolo[1,5-a]-pyrazin-5(4H)-yl)-2,2-dimethylpropan-1-one]	67	100
65	271	CNCCN(C)Cc1nn2c(c1C1CCC(COC)(COC)CC1)CN(C(=O)C1CCC(F)(F)CC1)CC2 [Example 29, (3-(4,4-bis(methoxymethyl)-cyclohexyl)-2-((methyl(2-(methylamino)ethyl)amino)-methyl)-6,7-dihydropyrazolo-[1,5-a]pyrazin-5(4H)-yl)(4,4-difluorocyclohexyl)-methanone]	99	84
91	116	CNCCN(C)Cc1nn2c(c1C1CCC(COC)(COC)CC1)CN(C(=O)C1(C)CCCC1)CC2 [Example 80, (3-(4,4-bis(methoxymethyl)-cyclohexyl)-2-((methyl(2-(methylamino)ethyl)amino)-methyl)-6,7-dihydropyrazolo-[1,5-a]pyrazin-5(4H)-yl)(1-methylcyclopentyl)-methanone]	104	70
54	1520	COCC1(COC)CCC(c2c(CN(C)CCN)nn3c2CN(C(=O)C2CC(F)(F)C2)CC3)CC1 [Example 40, (2-(((2-aminoethyl)(methyl)-amino)methyl)-3-(4,4-bis-(methoxymethyl)cyclohexyl)-6,7-dihydropyrazolo[1,5-a]-pyrazin-5(4H)-yl)(3,3-difluorocyclobutyl)-methanone]	249	304
72	180	CNCCN(C)Cc1nn2c(c1C1CCC(COC)(COC)CC1)CN(C(=O)C1(C#N)CCC1)CC2 [Example 41, 1-(3-(4,4-bis(methoxy-methyl)cyclohexyl)-2-((methyl(2-(methylamino)-ethyl)amino)methyl)-4,5,6,7-tetrahydropyrazolo[1,5-a]-pyrazine-5-carbonyl)cyclobutane-1-carbonitrile]	91	175
34	121	CNCCN(C)Cc1nn2c(c1C1CCC(COC)(COC)CC1)CN(C(=O)C1CC1)CC2 [Example 5, (3-(4,4-bis(methoxymethyl)-cyclohexyl)-2-((methyl(2-(methylamino)ethyl)amino)-methyl)-6,7-dihydropyrazolo-[1,5-a]pyrazin-5(4H)-yl)-(cyclopropyl)methanone]	81	58
62	239	CNCCN(C)Cc1nn2c(c1C1CCC(COC)(COC)CC1)CN(C(=O)C13CC(C1)C3)CC2 [Example 20, bicyclo[1.1.1]pentan-1-yl(3-(4,4-bis(methoxymethyl)-cyclohexyl)-2-((methyl(2-(methylamino)ethyl)amino)-methyl)-6,7-dihydropyrazolo-[1,5-a]pyrazin-5(4H)-yl)-methanone]	103	50
137	382	CNCCN(C)Cc1nn2c(c1C1CCC(COC)(COC)CC1)CN(C(=O)C1(C(C)(F)F)COC1)CC2 [Example 23, (3-(4,4-bis(methoxymethyl)-cyclohexyl)-2-((methyl(2-(methylamino)ethyl)amino)-methyl)-6,7-dihydropyrazolo-[1,5-a]pyrazin-5(4H)-yl)(3-(1,1-difluoroethyl)oxetan-3-yl)methanone]	147	264
82	419	CNCCN(C)Cc1nn2c(c1C1CCC(COC)(COC)CC1)CN(C(=O)C13CC(OC)(C1)C3)CC2 [Example 25, (3-(4,4-bis(methoxymethyl)-cyclohexyl)-2-((methyl(2-(methylamino)ethyl)amino)-methyl)-6,7-dihydropyrazolo-[1,5-a]pyrazin-5(4H)-yl)(3-methoxybicyclo[1.1.1]pentan-1-yl)methanone]	150	203
90	237	CNCCN(C)Cc1nn2c(c1C1CCC(COC)(COC)CC1)CN(C(=O)C(C)(C)C#N)CC2 [Example 37, 3-(3-(4,4-bis(methoxy-methyl)cyclohexyl)-2-((methyl(2-(methylamino)-ethyl)amino)methyl)-6,7-dihydropyrazolo[1,5-a]-pyrazin-5(4H)-yl)-2,2-dimethyl-3-oxopropanenitrile]	142	171
44	610	CNCCN(C)Cc1nn2c(c1C1CCC(COC)(COC)CC1)CN(C(=O)C13CC(C)(C1)C3)CC2 [Example 63, (3-(4,4-bis(methoxymethyl)-cyclohexyl)-2-((methyl(2-(methylamino)ethyl)amino)-methyl)-6,7-dihydropyrazolo-[1,5-a]pyrazin-5(4H)-yl)(3-methylbicyclo[1.1.1]pentan-1-yl)methanone]	67	16
79	177	CNCCN(C)Cc1nn2c(c1C1CCC(COC)(COC)CC1)CN(C(=O)C1CC(C)(C)C1)CC2 [Example 39, (3-(4,4-bis(methoxymethyl)-cyclohexyl)-2-((methyl(2-(methylamino)ethyl)amino)-methyl)-6,7-dihydropyrazolo-[1,5-a]pyrazin-5(4H)-yl)(3,3-dimethylcyclobutyl)-methanone]	108	49
29	486	COCC1(COC)CCC(c2c(CN(C)CCN)nn3c2CN(C(=O)C2(C(F)(F)F)CC2)CC3)CC1 [Example 46, (2-(((2-aminoethyl)(methyl)-amino)methyl)-3-(4,4-bis-(methoxymethyl)cyclohexyl)-6,7-dihydropyrazolo[1,5-a]-pyrazin-5(4H)-yl)(1-(trifluoro-methyl)cyclopropyl)-methanone]	288	294
